According to patent publication US8796249B2, “TGR5 modulators and methods of use thereof” (Intercept Pharmaceuticals, Inc., priority 2008, dated 2014):
Counter-ions that a name gives are not always drawn.

Assays:
[1] = tested on: pancreatic esterases; assay: In vitro metabolic stability in simulated duodenal/pancreatic fluid; assay type: in vitro ADME, porcine
Protocol: This study has been performed for 2A since it contains an ester bond in the side chain and the aim was to verify the stability in presence of esterase enzymes like present in duodenal and pancreatic juice. Simulated pancreatic fluid was prepared by dissolving 10 g/L Pancreatin (Sigma P8096: pancreatin from porcine pancreas, activity 1× USP specifications) in 0.05M phosphate buffer, pH=7.2±0.1. Then, 4-mL aliquots of the simulated pancreatic fluid were added of […] of the studied BA and incubated for different times (0, 30, 60, 90, 120, 180 and 240 min) at 37° C. After incubation, a 2-mL aliquot of each solution was added with 2 mL of 0.1M NaOH and subjected to bile acids extraction by SPE and analysis by thin-layer chromatography and mass spectrometry as described above. […] Olive oil was used as a reference as reported in the USP protocol.

[2] = tested on: C57BL6J mice; assay: Diet-induced obesity mouse model; assay type: in vivo
Protocol: The goal of the study was to assess the therapeutic potency of compound 3A in a mouse model of diet-induced obesity. Compound 3A was administered via food administration for 16 weeks to male C57BL6J mice that were previously subjected for 10 weeks to a high fat diet.
For this study, male C57BL6J mice (5 weeks of age) were divided in 2 groups: one group of animals received chow diet to control the onset of obesity, one group of animals received a high fat diet. Compound 3A was tested on the animals that received the high fat diet (HFD). The animals are then analyzed during a period of 13 weeks. The groups were as follows: • 1: chow diet • 2: high fat diet • 3: high fat diet+3A • During the entire study, body weight and food intake were monitored twice weekly. • The period for the onset of obesity was 10 weeks. At the end of the 10 weeks, body composition was analyzed by dual energy X-ray absorptiometry (dexascan) and serum levels of transaminases, glucose, triglycerides, cholesterol, HDL-C, LDL-C and insulin were measured. […]
The Dexa analyses were performed by the ultra high resolution PIXIMUS Series Densitometer (0.18×0.18 mm pixels, GE Medical Systems, Madison, Wis., USA). Bone mineral density (BMD in g/cm^2) and body composition were determined by using the PIXIMUS software (version 1.4×, GE Medical Systems). […]

[3] = Critical micellar concentration by surface tension (maximum bubble-pressure method); assay type: physicochemical
Protocol: The critical micellar concentration (CMC) was determined by surface tension (ST) measurements using a maximum bubble-pressure method which give surface tension values slightly affected by potential impurities like static methods are. The tensiometer was a […] Research Corp., Milwaukee, Wis.) equipped with two glass probes of 0.5 and 4.0 mm diameters connected to a source of nitrogen. The bubble frequency was 1 bubble/second in distilled water at 26° C. (P=2.7 atm) and the calibration was made with double-distilled water and methanol. The surface tension of BA sodium salts solutions in NaCl 0.15 M was measured at various concentrations inside the 0.13-50 mM range. The surface tension values were plotted against the logarithm of the bile salt concentration; the regression lines corresponding to the two parts of the curve (monomeric and micellar phases) were calculated using the method of least squares, and the intersection of the lines was taken as the CMC value. From the ST vs concentration curves the value of the surface tension at the CMC (equilibrium between monomers and multimers species) was also calculated giving information about the detergency power which is related to the size of the micelles with associate surface tension lowering capacity. The CMC was evaluated by surface tension measurements in non equilibrium conditions i.e. in conditions that impurities slightly affect the surface tension results (FIG. 1).

Structure (SMILES)	metabolic stability in simulated pancreatic fluid ([1]; 10 g/L pancreatin, pH 7.2, 37° C., up to 240 min)	hydrolysis of ester bond (sulphate) by pancreatic esterases ([1]; simulated pancreatic fluid)	body weight gain ([2]; HF-fed mice, compound in food, 0-9 weeks (FIG. 8))	fat gain (body composition) ([2]; HFD mice, 5 weeks after treatment (FIG. 9))	melting point	surface tension lowering capacity ([3]; NaCl […])	CMC […] Na+ ([3]; […] NaCl water solution)	STCMC (surface tension at CMC) ([3]; […] NaCl water solution)
CCC1C(O)C2C3CCC(C(C)CC(C)OS(=O)(=O)O)C3(C)CCC2C2(C)CCC(O)CC12 [Compound 2A, 3α,7α,23-trihydroxy-6α-ethyl-23(S)-methyl-24-nor-5β-cholan-23-sulfate Sodium Salt]	very stable	not hydrolyzed						
CC[C@H]1[C@@H](O)[C@@H]2[C@H](C[C@H](O)[C@]3(C)[C@@H]([C@H](C)CCCS(=O)(=O)[O-])CC[C@@H]23)[C@@]2(C)CC[C@@H](O)C[C@@H]12.[Na+] [Compound 3A, 3α,7α,12α-trihydroxy-6α-ethyl-5β-cholan-24-sulfonate Sodium Salt]			blunted	reduces fat gain	> 280 °C	high surface tension lowering capacity	2.8 mM	43.4 Dyne/cm
